From patent publication US10487054B2, “Therapeutic compounds” (REGENTS OF THE UNIVERSITY OF MINNESOTA, priority 2017, dated 2019) come the findings set out here.

Molecules are shown by their SMILES.

One test has as its target T1, MEK1 (Homo sapiens, UniProt Q02750).
T1 construct: purchased Millipore (Billerica, Mass.)
Nature of the test: In vitro kinase assay ([γ-32P] ATP, autoradiography). It is filed as biochemical. To be noted: 0.5, 1, 3, 5 or 10 μM. The method, then: (§1) Active TOPK (200 ng) was incubated with different concentrations of ATP (0, 10 or 100 μM) and then mixed with compound 1-conjugated Sepharose 4B beads or Sepharose 4B beads. Proteins were pulled down and analyzed by Western blot. Data are representative of 3 independent experiments that gave similar results. FIGS. 2C and 2D show compound 1 binds to either TOPK (2C) or MEK1/2 (2D) ex vivo. Lysates from HaCaT cells (500 μg) were incubated with compound 1-conjugated Sepharose 4B beads or Sepharose 4B beads alone and the pulled-down proteins were analyzed by Western blot. Data are representative of 3 independent experiments that gave similar results. FIGS. 2E and 2F show compound 1 inhibits TOPK kinase (2E) activity but not MEK1 kinase (2F) activity in vitro. Active TOPK (200 ng) was mixed with compound 1 (0, 0.5, 1, 3, or 5 μM) or HI-032 (TOPK inhibitor, 10 μM) and then incubated with a [γ-^32P] ATP mixture. Similarly, MEK1 (200 ng) was mixed with compound 1 (0, 0.5, 1, 3, 5, or 10 μM) or PD098059 (MEK1 inhibitor, 5 μM) and then incubated with a [γ-^32P] ATP mixture. For 2E and 2F, the results are visualized by autoradiography and Coomassie blue staining serves as a loading control. […]
(§2) The in vitro kinase assay was conducted according to the instructions provided by Millipore (Billerica, Mass.). […] The relative amounts of incorporated radioactivity were assessed by autoradiography.

In a further test the target is T2, active TOPK (Homo sapiens, UniProt Q96KB5).
T2 construct: purchased SignalChem (Richmond, BC, Canada)
T2 sequence (Q96KB5 1-322): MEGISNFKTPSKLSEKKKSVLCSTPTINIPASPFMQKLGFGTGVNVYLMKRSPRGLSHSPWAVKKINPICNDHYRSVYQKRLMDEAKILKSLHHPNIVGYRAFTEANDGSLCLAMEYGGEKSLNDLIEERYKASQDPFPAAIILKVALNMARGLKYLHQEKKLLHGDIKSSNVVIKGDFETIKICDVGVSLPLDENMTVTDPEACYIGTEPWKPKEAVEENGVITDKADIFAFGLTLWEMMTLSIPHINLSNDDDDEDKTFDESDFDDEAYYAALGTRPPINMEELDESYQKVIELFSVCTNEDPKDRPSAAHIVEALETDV
The test is described as above. In kind it is biochemical. The conditions noted are these: 0.5, 1, 3 or 5 μM. The method, then:
as §1, §2

T1 sequence (Q02750 whole entry): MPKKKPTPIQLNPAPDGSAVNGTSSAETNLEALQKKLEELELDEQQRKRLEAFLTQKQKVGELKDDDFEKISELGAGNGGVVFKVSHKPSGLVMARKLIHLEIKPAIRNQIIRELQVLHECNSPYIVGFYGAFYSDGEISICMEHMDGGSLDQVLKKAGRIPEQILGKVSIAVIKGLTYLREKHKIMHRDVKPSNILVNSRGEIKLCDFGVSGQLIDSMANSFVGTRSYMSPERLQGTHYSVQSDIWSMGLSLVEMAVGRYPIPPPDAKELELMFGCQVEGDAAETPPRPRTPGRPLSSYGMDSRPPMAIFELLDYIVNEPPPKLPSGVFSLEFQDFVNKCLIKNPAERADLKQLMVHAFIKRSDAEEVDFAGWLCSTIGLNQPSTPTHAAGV

Consider `O=C1Nc2ccc(C34CC5CC(CC(C5)C3)C4)cc2C1=NO` [compound 1, 5-(adamantan-1-yl)-3-(hydroxyimino)indolin-2-one], for which the MEK1 kinase activity result at MEK1 is on record as “but not MEK1 activity”. Besides, the TOPK kinase activity result on active TOPK is recorded as “effectively inhibited”.
